This test deals with CFTR-mediated chloride transport in human intestinal epithelial enteroid cells (Homo sapiens, UniProt P13569). Kind of test: Membrane potential dye, Enteroid Assay A. Format: cell-based. As to conditions: for EC50: read-out: Ent. A EC50. In short, it runs like this:
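Membrane potential dye (20 μM methyl oxonol, with 30 μM CaCCinh-A01 and 30 μM Chicago Sky Blue) loaded 25 min at room temperature into ROCK-inhibitor-seeded human enteroid cells. Chloride-free stimulation buffer triggered transport, followed by 15 min fluorescence. % Activity relative to 3 μM/3 μM/300 nM triple-combination control.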

Where [1] appears, read: enteroid cells incubated with test compound 18-24 hours, acute 10 μM forskolin and 300 nM N-[2,4-bis(1,1-dimethylethyl)-5-hydroxyphenyl]-1,4-dihydro-4-oxoquinoline-3-carboxamide.
Where [2] appears, read: percentage of chloride transport of triple combination control (3 μM N-[(6-amino-2-pyridyl)sulfonyl]-6-(3-fluoro-5-isobutoxy-phenyl)-2-[(4S)-2,2,4-trimethylpyrrolidin-1-yl]pyridine-3-carboxamide based).

Like-named read-outs stand apart in the source and are kept apart here. A value given as a limit tells only on which side of the number the result lay.

Sequence of CFTR-mediated chloride transport in human intestinal epithelial enteroid cells (P13569 with tags, fused parts or gaps DEL508-508): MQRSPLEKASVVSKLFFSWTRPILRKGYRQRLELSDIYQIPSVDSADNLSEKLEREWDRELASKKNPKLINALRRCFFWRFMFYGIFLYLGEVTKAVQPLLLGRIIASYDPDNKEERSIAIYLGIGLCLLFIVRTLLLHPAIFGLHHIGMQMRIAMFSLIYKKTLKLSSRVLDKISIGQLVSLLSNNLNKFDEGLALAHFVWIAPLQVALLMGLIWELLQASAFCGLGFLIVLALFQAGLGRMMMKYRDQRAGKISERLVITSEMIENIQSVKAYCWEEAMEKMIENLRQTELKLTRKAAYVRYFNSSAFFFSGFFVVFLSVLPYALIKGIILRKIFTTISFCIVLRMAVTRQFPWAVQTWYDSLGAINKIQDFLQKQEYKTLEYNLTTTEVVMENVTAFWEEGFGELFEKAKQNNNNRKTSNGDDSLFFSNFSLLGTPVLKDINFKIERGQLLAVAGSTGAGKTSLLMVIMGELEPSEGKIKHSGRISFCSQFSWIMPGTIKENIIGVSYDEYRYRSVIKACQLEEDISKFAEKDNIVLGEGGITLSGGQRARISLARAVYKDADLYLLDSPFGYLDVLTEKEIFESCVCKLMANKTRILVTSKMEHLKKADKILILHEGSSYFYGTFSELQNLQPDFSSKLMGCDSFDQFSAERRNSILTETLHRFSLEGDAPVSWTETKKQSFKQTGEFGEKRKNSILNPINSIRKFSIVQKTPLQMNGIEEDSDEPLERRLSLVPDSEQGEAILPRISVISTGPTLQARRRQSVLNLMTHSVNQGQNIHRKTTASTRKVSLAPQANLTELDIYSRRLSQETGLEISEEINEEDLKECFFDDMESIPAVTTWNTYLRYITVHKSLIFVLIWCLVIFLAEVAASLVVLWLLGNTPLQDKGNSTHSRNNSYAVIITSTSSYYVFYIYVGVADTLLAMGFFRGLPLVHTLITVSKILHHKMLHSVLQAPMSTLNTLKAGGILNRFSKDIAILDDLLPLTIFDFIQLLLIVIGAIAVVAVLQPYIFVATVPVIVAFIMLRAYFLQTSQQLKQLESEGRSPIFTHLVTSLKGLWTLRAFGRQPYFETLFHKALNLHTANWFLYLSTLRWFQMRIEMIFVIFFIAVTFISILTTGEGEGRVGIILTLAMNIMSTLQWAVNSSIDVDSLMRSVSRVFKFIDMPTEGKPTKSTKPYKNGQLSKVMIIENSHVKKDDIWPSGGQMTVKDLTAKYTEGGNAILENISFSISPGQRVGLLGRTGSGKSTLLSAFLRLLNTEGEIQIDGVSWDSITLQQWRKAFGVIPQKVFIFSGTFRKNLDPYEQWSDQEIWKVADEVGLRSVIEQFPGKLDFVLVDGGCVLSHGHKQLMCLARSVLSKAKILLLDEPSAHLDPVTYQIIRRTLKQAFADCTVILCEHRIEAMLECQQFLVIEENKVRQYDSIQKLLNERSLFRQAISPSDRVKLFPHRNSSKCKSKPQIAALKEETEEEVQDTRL

By EC50 is commonly meant the midpoint of the concentration-response curve. With `Cc1cccc(C)c1-c1cc2nc(n1)NS(=O)(=O)c1cccc(c1)C(=O)N1Cc3cc(C(C)(C)C)ccc3[C@H](O2)[C@H]1CC(C)C` [Compound 184, (16S,24R)-20-tert-Butyl-12-(2,6-dimethylphenyl)-24-(2-methylpropyl)-15-oxa-8λ^6-thia-1,9,11,25-tetraazapentacyclo[14.7.1.13,7.110,14.017,22]hexacosa-3,5,7(26),10,12,14(25),17,19,21-nonaene-2,8,8-trione], where the note is “Enteroid Assay A”, the “Ent. A Max Activity (%)” value was “+++ (+++ is >600%)” and the EC50 was < 1000 nM. The corresponding values for `Cc1cccc(C)c1-c1cc2nc(n1)NS(=O)(=O)c1cccc(c1)C(=O)N1Cc3cc(C(C)(C)C)ccc3[C@@H](O2)[C@H]1CC(C)C` [Compound 185, (16R,24R)-20-tert-butyl-12-(2,6-dimethylphenyl)-24-(2-methylpropyl)-15-oxa-8λ^6-thia-1,9,11,25-tetraazapentacyclo[14.7.1.13,7.110,14.017,22]hexacosa-3,5,7(26),10,12,14(25),17,19,21-nonaene-2,8,8-trione] are “+++ (+++ is >600%)” and < 1000 nM. The corresponding values for `Cc1cccc(C)c1-c1cc2nc(n1)NS(=O)(=O)c1cccc(c1)C(=O)N1CCCN(Cc3ccccc3)CC(C1)O2` (stereo not drawn) [Compound 205, 18-Benzyl-12-(2,6-dimethylphenyl)-15-oxa-8λ^6-thia-1,9,11,18,23-pentaazatetracyclo[14.5.1.13,7.110,14]tetracosa-3,5,7(24),10,12,14(23)-hexaene-2,8,8-trione] are “++ (++ is 30-60%)” and < 1000 nM. For the compound `Cc1cccc(C)c1-c1cc2nc(n1)NS(=O)(=O)c1cccc(c1)C(=O)N1CCCN(CCC(C)(C)C)CC(C1)O2` (stereo not drawn) [Compound 206, 18-(3,3-Dimethylbutyl)-12-(2,6-dimethylphenyl)-15-oxa-8λ^6-thia-1,9,11,18,23-pentaazatetracyclo[14.5.1.13,7.110,14]tetracosa-3,5,7(24),10,12,14(23)-hexaene-2,8,8-trione], for the setting “Enteroid Assay A”, the “Ent. A Max Activity (%)” value is reported as “++ (++ is 30-60%)” and the EC50 is < 1000 nM.

`Cc1cccc(C)c1-c1cc2nc(n1)NS(=O)(=O)c1cc(n(C)c1)C(=O)N1Cc3ccccc3C(C1)O2` (stereo not drawn) [Compound 207, 11-(2,6-Dimethylphenyl)-4-methyl-14-oxa-7λ^6-thia-1,4,8,10,24-pentaazapentacyclo[13.7.1.13,6.19,13.016,21]pentacosa-3(25),5,9(24),10,12,16(21),17,19-octaene-2,7,7-trione]: the EC50 under setting [1] is < 1000 nM. For the same compound, under setting [2], the “Ent. A Max Activity (%)” value was “++ (++ is 30-60%)”. With `Cc1cccc(C)c1-c1cc2nc(n1)NS(=O)(=O)c1cccc(c1)CN1Cc3ccccc3C(C1)O2` (stereo not drawn) [Compound 208, 12-(2,6-Dimethylphenyl)-15-oxa-8λ^6-thia-1,9,11,25-tetraazapentacyclo[14.7.1.13,7.110,14.017,22]hexacosa-3(26),4,6,10,12,14(25),17(22),18,20-nonaene-8,8-dione], the EC50 under setting [1] is < 1000 nM. Under setting [2], the “Ent. A Max Activity (%)” value is on record as “++ (++ is 30-60%)”. On to `Cc1cccc(C)c1-c1cc2nc(n1)NS(=O)(=O)c1cccc(c1)C(=O)N1CCOC[C@@H]1[C@@H](Cc1ccccc1)O2` [Compound 209, (8R)-9-Benzyl-13-(2,6-dimethylphenyl)-6,10-dioxa-17λ^6-thia-3,14,16,23-tetraazatetracyclo[16.3.1.111,15.03,8]tricosa-1(22),11,13,15(23),18,20-hexaene-2,17,17-trione], for which, under setting [1], the EC50 is < 1000 nM. Besides, the “Ent. A Max Activity (%)” value under setting [2] is listed as “+++ (+++ is >60%)”. Consider `Cc1cccc(C)c1-c1cc2nc(n1)NS(=O)(=O)c1cccc(c1)C(=O)N1Cc3ccccc3C[C@@H]1CO2` [Compound 211, (12R)-17-(2,6-Dimethylphenyl)-14-oxa-21λ^6-thia-3,18,20,27-tetraazapentacyclo[20.3.1.115,19.03,12.05,10]heptacosa-1(26),5(10),6,8,15(27),16,18,22,24-nonaene-2,21,21-trione], for which the EC50 under setting [1] is < 1000 nM. In addition, the “Ent. A Max Activity (%)” value under setting [2] is listed as “+++ (+++ is >60%)”.

For the compound `Cc1cccc(C)c1-c1cc2nc(n1)NS(=O)(=O)c1cccc(c1)C(=O)N1Cc3ccccc3C[C@H]1CO2` [Compound 212, (12S)-17-(2,6-Dimethylphenyl)-14-oxa-21λ^6-thia-3,18,20,27-tetraazapentacyclo[20.3.1.115,19.03,12.05,10]heptacosa-1(26),5(10),6,8,15(27),16,18,22,24-nonaene-2,21,21-trione], the EC50 under setting [1] was < 1000 nM. The “Ent. A Max Activity (%)” value under setting [2] is “++ (++ is 30-60%)”. As to `Cc1cccc(C)c1-c1cc2nc(n1)NS(=O)(=O)c1cccc(c1)C(=O)N1CCc3ccccc3C(C1)O2` (stereo not drawn) [Compound 220, 12-(2,6-Dimethylphenyl)-15-oxa-8λ^6-thia-1,9,11,26-tetraazapentacyclo[14.8.1.13,7.110,14.017,22]heptacosa-3(27),4,6,10(26),11,13,17,19,21-nonaene-2,8,8-trione], under setting [1], the EC50 was < 1000 nM. Moreover, the “Ent. A Max Activity (%)” value under setting [2] is “+++ (+++ is >60%)”.

As for `Cc1cccc(C)c1-c1cc2nc(n1)NS(=O)(=O)c1cccc(c1)C(=O)N1CC(CC3(CCCC3)C1)O2` (stereo not drawn) [Compound 229, 18′-(2,6-Dimethylphenyl)-2′-oxa-14′λ^6-thia-7′,15′,17′,20′-tetraazaspiro[cyclopentane-1,5′-tetracyclo[14.3.1.13,7.19,13]docosane]-1′(20′),9′,11′,13′(21′),16′,18′-hexaene-8′,14′,14′-trione], under setting [1], the EC50 is < 1000 nM. The “Ent. A Max Activity (%)” value under setting [2] is “++ (++ is 30-60%)”.

On to `Cc1cccc(C)c1-c1cc2nc(n1)NS(=N)(=O)c1cccc(c1)C(=O)N1CCN(C(=O)OC(C)(C)C)CC(C1)O2` (stereo not drawn) [Compound 240, tert-butyl 12-(2,6-dimethylphenyl)-8-imino-2,8-dioxo-15-oxa-8λ^6-thia-1,9,11,18,22-pentaazatetracyclo[14.4.1.13,7.110,14]tricosa-3,5,7(23),10,12,14(22)-hexaene-18-carboxylate], for which, where the note is “Enteroid Assay A”, the “Ent. A Max Activity (%)” value is reported as “++ (++ is 30-60%)” and the EC50 lay in the range of 3000 to 30000 nM. Regarding `Cc1cccc(C)c1-c1cc2nc(n1)NS(=N)(=O)c1cccc(c1)C(=O)N1CCNCC(C1)O2` (stereo not drawn) [Compound 241, 12-(2,6-Dimethylphenyl)-8-imino-15-oxa-8λ^6-thia-1,9,11,18,22-pentaazatetracyclo[14.4.1.13,7.110,14]tricosa-3,5,7(23),10,12,14(22)-hexaene-2,8-dione], where the note is “Enteroid Assay A”, the “Ent. A Max Activity (%)” value is recorded as “+ (+ is <30%)”. Turning to `Cc1cccc(C)c1-c1cc2nc(n1)NS(=N)(=O)c1cccc(c1)C(=O)N1CCNCC(C1)O2` (stereo not drawn) [Compound 242, 12-(2,6-Dimethylphenyl)-8-imino-15-oxa-8λ^6-thia-1,9,11,18,22-pentaazatetracyclo[14.4.1.13,7.110,14]tricosa-3,5,7(23),10,12,14(22)-hexaene-2,8-dione], the “Ent. A Max Activity (%)” value (Enteroid Assay A) was “+ (+ is <30%)”. As to `Cc1cccc(C)c1-c1cc2nc(n1)NS(=N)(=O)c1cccc(c1)C(=O)N1CCN(Cc3ccccc3)CC(C1)O2` (stereo not drawn) [Compound 246], under “Enteroid Assay A”, the “Ent. A Max Activity (%)” value is listed as “++ (++ is 30-60%)” and the EC50 is 1000 to 3000 nM. On to `Cc1cccc(C)c1-c1cc2nc(n1)NS(=N)(=O)c1cccc(c1)C(=O)N1CCN(CCC(C)(C)C)CC(C1)O2` (stereo not drawn) [Compound 247], for which, under “Enteroid Assay A”, the “Ent. A Max Activity (%)” value is “+ (+ is <30%)” and the EC50 lay in the range of 1000 to 3000 nM.

The values above are taken from US20240018161A1, “MODULATORS OF CYSTIC FIBROSIS TRANSMEMBRANE CONDUCTANCE REGULATOR” (VERTEX PHARMACEUTICALS INCORPORATED, priority 2020, published 2024).
